Publication PMC10587159, “Biosynthesis and engineering of the nonribosomal peptides with a C-terminal putrescine” (Nature Communications, 2023)
Entries after “also recorded” stand apart in the source; their conditions may differ. Residues, ends and D or L forms follow the SMILES beside them. *: point of attachment. Octanoyl = CCCCCCCC(=O)*; NH(CH2)4NH2 = NCCCCN*

How the values were obtained:
[1] = test system: human lung adenocarcinoma cell A549; experiment: MTT cytotoxicity assay, A549; type: cell-based; details: 24 h
Summary of the method: (§1)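 Cytotoxicity in Kasumi, HepG-2, SGC-7901 and normal lung epithelial 2B cells, among other human tumour lines, was measured by MTT assay.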

[2] = test system: human breast adenocarcinoma cells MDA-MB-231; experiment: cells; type: cell-based; details: 24 h
Summary of the method: as §1

[3] = test system: human hepatoma cell HepG-2; experiment: cells; type: cell-based; details: 24 h
Summary of the method: as §1

[4] = test system: human lung epithelial normal cell 2B; experiment: cells; type: cell-based; details: 24 h
Summary of the method: as §1

[5] = test system: human ovarian cancer cell line SKOV3; experiment: cells; type: cell-based; details: 24 h
Summary of the method: as §1

[6] = test system: tumor lines; experiment: MTT cytotoxicity assay, statements on the whole panel; type: cell-based, human
Summary of the method: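 Cytotoxicity against the listed human lines (Kasumi leukemia, HepG-2 hepatoma, SGC-7901 gastric, normal lung epithelial 2B) measured by MTT assay following a previously described protocol. Cell identity checked regularly by morphology and gene/protein expression.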

[7] = test system: RAW 264.7 cells; experiment: NO production in LPS-induced RAW264.7 cells (Griess method), anti-inflammatory; type: cell-based; details: compounds 0-80 μM for 30 min, then co-treatment with LPS 24 h; Griess reagents, OD 540 nm
From the text: The two human acute lymphoblastic leukemia cells K562 and Kasumi, two human breast adenocarcinoma cells MCF7 and MDA-MB-231, human hepatoma cell HepG-2, human lung adenocarcinoma cell A549, human gastric cancer cell SGC-7901, human colon cancer cell HCT-116, human ovarian cancer cell line SKOV3, or human lung epithelial normal cell 2B were obtained from Beyotime Biotechnology and utilized to test the cytotoxicity of compounds by MTT assays as previous study. The anti-inflammatory effect of the compounds was detected by the influence on the increase in the level of nitric oxide caused by lipopolysaccharide (LPS) based on the classic Griess method. RAW 264.7 cells (Shanghai Institutes for Biological Science) were seeded in 96-well plates and incubated for 24 h. Then, cells were treated with compounds 29, 29a, 31, and 31a (0-80 μM) for 30 min, followed by co-treatment with LPS ([…]) for another 24 h. The Nitric Oxide assay kit with Griess reagents (Beyotime, Lot: S0021, Shanghai, China) was used to examine cellular supernatant nitrite accumulation, which represents cellular NO levels. The OD value of 540 nm absorbance was detected with a microplate reader. […]
We measured NO production to test the anti-inflammatory activity of compounds […]
cellular NO levels. The OD value of 540 nm absorbance was detected with a microplate […]

CCCCCCCC(=O)N[C@H](C(=O)N[C@@H](Cc1ccccc1)C(=O)N[C@@H](CCC(=O)O)C(=O)N[C@H](C(=O)N[C@@H](C)C(=O)NCCCCN)[C@@H](C)CC)C(C)C [Compound 31] (Octanoyl-VFEIA-{NH(CH2)4NH2}; N-terminus assumed)
IC50 [1]: 198.3 ± 1.25 µM
IC50 [2]: 168.9 ± 1.05 µM
IC50 [3]: 136.2 ± 0.15 µM
IC50 [4]: 42.6 ± 1.25 µM
IC50 [5]: 241.4 ± 0.07 µM
IC50 ([6]; 24 h): > 40 µM
cytotoxic / antitumor activity in words ([6]; MTT assay, panel of tumor cell lines): higher anti-inflammatory and antitumor activities than 29a and 31a
anti-inflammatory activity (NO production in LPS-induced RAW264.7 cells) in words [7]: higher anti-inflammatory and antitumor activities than 29a and 31a; also recorded: moderate; also recorded: suppressed moderately the release
